Experimental data published in US20170156335A1, “SYSTEMS AND METHODS FOR RELEASING CHLORINE DIOXIDE” (priority 2014, published 2017).

Test system: Raoultella (Klebsiella) terrigena (R. terrigena, ATCC 33257)
Experiment: Anti-microbial activity test (AMA) in water bottles vs Raoultella terrigena
Type: cell-based
Conditions: AWT018; without SC

CCOC(C)=O [EtOAc, Ethyl acetate]
antimicrobial potential of formulation additives: no antimicrobial potential
